Measurements published in US10208044B2, “ACC inhibitors and uses thereof” (Gilead Apollo, LLC, priority 2013, dated 2019).

How the values were obtained:
[1] = test system: ACC1; settings: ACC1 isolated from rat, mouse, monkey and human; cited from earlier work
[2] = test system: ACC2; settings: ACC2 isolated from rat, mouse, monkey and human; cited from earlier work
[3] = target: ACC2 (Homo sapiens (Human), UniProt O00763); test: in vitro ACC2 inhibition assay (ADP-Glo); format: biochemical; settings: 5 nM ACC2, 20 μM ATP, 20 μM acetyl-CoA
ACC2 (Homo sapiens (Human), UniProt O00763), sequence (O00763 whole entry, species assumed): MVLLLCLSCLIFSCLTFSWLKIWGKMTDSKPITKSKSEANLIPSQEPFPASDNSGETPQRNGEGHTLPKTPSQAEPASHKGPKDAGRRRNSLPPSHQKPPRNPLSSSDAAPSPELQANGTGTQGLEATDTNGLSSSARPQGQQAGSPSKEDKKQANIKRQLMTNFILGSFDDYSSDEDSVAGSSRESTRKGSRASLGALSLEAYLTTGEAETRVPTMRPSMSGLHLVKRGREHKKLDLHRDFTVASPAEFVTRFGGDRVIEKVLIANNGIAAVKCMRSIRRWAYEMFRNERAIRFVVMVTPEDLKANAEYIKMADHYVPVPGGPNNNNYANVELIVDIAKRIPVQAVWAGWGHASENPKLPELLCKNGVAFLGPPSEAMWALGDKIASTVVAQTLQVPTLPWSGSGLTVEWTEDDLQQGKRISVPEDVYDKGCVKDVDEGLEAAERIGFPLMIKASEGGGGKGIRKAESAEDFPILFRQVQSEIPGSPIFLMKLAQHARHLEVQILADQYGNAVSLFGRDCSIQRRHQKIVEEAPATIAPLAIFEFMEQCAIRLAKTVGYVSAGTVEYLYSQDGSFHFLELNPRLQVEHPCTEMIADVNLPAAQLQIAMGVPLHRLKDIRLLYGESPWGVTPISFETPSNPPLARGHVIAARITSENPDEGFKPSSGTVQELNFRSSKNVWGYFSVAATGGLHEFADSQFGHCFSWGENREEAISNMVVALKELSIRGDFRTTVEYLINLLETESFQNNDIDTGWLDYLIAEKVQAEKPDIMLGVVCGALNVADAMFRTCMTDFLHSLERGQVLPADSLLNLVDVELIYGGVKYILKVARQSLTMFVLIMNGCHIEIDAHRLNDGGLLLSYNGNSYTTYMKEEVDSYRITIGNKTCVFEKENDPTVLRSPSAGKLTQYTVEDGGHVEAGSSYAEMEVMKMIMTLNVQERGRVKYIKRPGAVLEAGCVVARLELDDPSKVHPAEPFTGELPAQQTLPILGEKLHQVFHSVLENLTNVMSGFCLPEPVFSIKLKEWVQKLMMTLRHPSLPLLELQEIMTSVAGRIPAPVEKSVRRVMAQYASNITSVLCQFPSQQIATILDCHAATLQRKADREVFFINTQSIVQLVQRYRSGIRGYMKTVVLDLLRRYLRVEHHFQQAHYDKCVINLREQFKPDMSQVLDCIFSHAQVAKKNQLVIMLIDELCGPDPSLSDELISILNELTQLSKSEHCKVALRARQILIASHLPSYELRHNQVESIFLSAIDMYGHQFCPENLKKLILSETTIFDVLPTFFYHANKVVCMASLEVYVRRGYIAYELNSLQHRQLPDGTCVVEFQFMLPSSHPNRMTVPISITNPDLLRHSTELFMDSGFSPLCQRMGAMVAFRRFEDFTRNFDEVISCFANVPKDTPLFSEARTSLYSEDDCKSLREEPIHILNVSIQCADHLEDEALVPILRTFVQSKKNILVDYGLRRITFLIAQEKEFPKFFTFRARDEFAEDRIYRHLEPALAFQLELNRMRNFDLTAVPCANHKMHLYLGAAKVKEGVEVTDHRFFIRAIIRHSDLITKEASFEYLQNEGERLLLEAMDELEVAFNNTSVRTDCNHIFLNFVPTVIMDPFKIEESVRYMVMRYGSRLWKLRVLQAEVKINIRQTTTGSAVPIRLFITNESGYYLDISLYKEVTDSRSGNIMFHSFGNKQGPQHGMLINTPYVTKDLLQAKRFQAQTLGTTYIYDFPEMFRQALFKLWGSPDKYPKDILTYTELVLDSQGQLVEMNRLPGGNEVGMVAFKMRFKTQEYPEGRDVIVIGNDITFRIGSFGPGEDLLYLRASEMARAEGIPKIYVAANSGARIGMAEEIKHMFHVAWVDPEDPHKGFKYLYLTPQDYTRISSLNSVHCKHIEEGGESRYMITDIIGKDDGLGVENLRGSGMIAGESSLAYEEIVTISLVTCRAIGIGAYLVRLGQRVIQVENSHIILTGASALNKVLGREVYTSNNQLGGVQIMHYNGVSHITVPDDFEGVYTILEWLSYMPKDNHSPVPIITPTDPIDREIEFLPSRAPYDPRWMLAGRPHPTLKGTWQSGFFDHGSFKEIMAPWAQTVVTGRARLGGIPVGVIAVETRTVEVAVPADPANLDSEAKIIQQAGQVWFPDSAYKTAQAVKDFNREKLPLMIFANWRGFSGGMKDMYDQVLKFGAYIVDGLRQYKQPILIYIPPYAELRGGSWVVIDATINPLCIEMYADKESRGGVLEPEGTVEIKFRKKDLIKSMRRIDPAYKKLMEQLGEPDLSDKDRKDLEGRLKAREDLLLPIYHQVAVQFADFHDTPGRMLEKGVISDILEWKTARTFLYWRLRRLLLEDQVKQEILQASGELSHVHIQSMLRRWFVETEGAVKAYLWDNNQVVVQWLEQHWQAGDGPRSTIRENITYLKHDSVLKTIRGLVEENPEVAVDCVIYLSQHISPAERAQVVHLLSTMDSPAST
Procedure: An exemplary procedure for the in vitro ACC inhibition assay, which can be used to determine the inhibitory action of compounds of the invention toward either ACC1 or ACC2, follows. The ADP-Glo™ Kinase Assay kit from Promega is used. The ADP-Glo™ Kinase Assay is a luminescent ADP detection assay to measure enzymatic activity by quantifying the amount of ADP produced during an enzyme reaction. The assay is performed in two steps; first, after the enzyme reaction, an equal volume of ADP-Glo™ Reagent is added to terminate the reaction and deplete the remaining ATP. Second, the Kinase Detection Reagent is added to simultaneously convert ADP to ATP and allow the newly synthesized ATP to be measured using a luciferase/luciferin reaction. Luminescence can be correlated to ADP concentrations by using an […]. The detailed procedure is as follows. 50 μL of the compound being tested (600 uM in DMSO) is added to a 384-well dilution plate. The compound is diluted 1:3 in succession in DMSO for each row for 11 wells. 0.5 μL ACC2 working solution is added to 384-well white Optiplate assay plate. 0.5 μL diluted compound solution in each column from step 2 is added to the assay plate, each row containing 2 replicates. For the last 2 rows, add 0.5 μL negative control (DMSO) in one row and 0.5 μL positive control (compound I-97) in the other. The plates are incubated at room temperature for 15 minutes. […] Plates are incubated at room temperature for 40 minutes, then read on a Perkin Elmer EnVision 2104 plate reader for luminescence as Relative Light Units (RLU).
Data for each concentration, as well as the positive and negative controls are averaged, and the standard deviation calculated. Percent inhibition is calculated by the formula: 100× (average negative control−compound)/(average negative control−average positive control). The IC50 for each compound is calculated by fitting the data with a non-linear regression equation: Y=Bottom+(Top-Bottom)/(1+10^((Log IC50-X)*HillSlope)), where X is the log of compound concentration and Y is percent inhibition. […]

IC50 [3]	SMILES	IC50 [1]	IC50 [2]
–	O=C(c1c2ccccc2cc2ccccc12)N1CCC(N2CCC[C@@H](C(=O)N3CCOCC3)C2)CC1 [CP-640186]	~0.06 µM	~0.06 µM
20 to 50 µM	COc1ccc(F)cc1[C@H](Cn1c(=O)n(C(C)(C)C(=O)O)c(=O)c2cc(-c3ncco3)ccc21)OC1CCOCC1 [Compound I-28, (R)-2-(1-(2-(5-fluoro-2-methoxyphenyl)-2-((tetrahydro-2H-pyran-4-yl)oxy)ethyl)-6-(oxazol-2-yl)-2,4-dioxo-1,2-dihydroquinazolin-3(4H)-yl)-2-methylpropanoic acid]	–	–
20 to 50 µM	COc1ccc(F)cc1[C@H](Cn1c(=O)n(C(C)(C)C(N)=O)c(=O)c2cc(-c3ncco3)ccc21)OC1CCOCC1 [Compound I-29, (R)-2-(1-(2-(5-fluoro-2-methoxyphenyl)-2-((tetrahydro-2H-pyran-4-yl)oxy)ethyl)-6-(oxazol-2-yl)-2,4-dioxo-1,2-dihydroquinazolin-3(4H)-yl)-2-methylpropanamide]	–	–
20 to 50 µM	COc1ccc(F)cc1[C@H](Cn1c(=O)n(C(C)(C)C(=O)O)c(=O)c2cc(Br)ccc21)OC1CCOCC1 [Compound I-30, (R)-2-(6-bromo-1-(2-(5-fluoro-2-methoxyphenyl)-2-((tetrahydro-2H-pyran-4-yl)oxy)ethyl)-2,4-dioxo-1,2-dihydroquinazolin-3(4H)-yl)-2-methylpropanoic acid]	–	–
